Source: article PMC4301037, “Identification and Structure–Function Analysis of Subfamily Selective G Protein-Coupled Receptor Kinase Inhibitors” (ACS Chemical Biology, 2014)
Read-outs that look alike come from different tables or passages of the source.

Legend:
human GRK2S670A = molecular target: T1, human GRK2S670A (Homo sapiens, UniProt P25098, S670A); experiment: Primary DSF (differential scanning fluorimetry) inhibitor screen, GRK2; format: binding; conditions: 10 μM compound; for ΔTm at 10 µM: read-out: ΔTm, primary screen, GRK2; for rank in the primary screen, GRK2: rank ordering of compounds in primary DSF screen
T1 construct: when using full-length kinases as the receptor[37] instead of isolated kinase domains; made in house
T1 sequence (P25098 1-689 S670A): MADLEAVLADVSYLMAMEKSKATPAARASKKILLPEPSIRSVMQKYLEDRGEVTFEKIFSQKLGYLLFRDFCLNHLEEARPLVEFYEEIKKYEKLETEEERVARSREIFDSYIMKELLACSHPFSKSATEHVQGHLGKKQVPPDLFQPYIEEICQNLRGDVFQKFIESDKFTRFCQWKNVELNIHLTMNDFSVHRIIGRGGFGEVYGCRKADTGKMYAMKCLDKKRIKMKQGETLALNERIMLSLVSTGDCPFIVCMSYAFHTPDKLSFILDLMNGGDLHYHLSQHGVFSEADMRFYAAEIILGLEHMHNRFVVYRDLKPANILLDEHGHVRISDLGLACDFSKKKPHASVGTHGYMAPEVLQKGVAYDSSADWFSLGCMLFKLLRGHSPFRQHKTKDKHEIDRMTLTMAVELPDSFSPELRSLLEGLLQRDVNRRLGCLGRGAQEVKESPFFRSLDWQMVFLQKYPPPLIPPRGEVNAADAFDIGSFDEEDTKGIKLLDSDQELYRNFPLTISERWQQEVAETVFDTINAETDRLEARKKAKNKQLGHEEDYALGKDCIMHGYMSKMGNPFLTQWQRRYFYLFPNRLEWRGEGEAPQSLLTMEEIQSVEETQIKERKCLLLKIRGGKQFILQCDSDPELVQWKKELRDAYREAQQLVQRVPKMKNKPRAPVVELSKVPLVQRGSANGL

bovine GRK5 = molecular target: T2, bovine GRK5 (Bos taurus, UniProt P43249); experiment: Primary DSF inhibitor screen, GRK5; format: binding; conditions: 10 μM compound, 2 μM kinase, relative to DMSO control; read-out: ΔTm, primary screen, GRK5
T2 construct: when using full-length kinases as the receptor[37] instead of isolated kinase domains; made in house

GRK1 [1] = molecular target: T3, GRK1 (Bos taurus, UniProt P28327); experiment: DSF retest (confirmation), GRK1; format: binding, bovine; conditions: for GRK1 Tm: 0.2 mg mL^–1 kinase; for GRK1 ΔTm: relative to intrinsic melting point of the kinase
T3 construct: Bovine GRK1_1–535, bovine and human GRK2S670A; made in house
T3 sequence (P28327 1-535): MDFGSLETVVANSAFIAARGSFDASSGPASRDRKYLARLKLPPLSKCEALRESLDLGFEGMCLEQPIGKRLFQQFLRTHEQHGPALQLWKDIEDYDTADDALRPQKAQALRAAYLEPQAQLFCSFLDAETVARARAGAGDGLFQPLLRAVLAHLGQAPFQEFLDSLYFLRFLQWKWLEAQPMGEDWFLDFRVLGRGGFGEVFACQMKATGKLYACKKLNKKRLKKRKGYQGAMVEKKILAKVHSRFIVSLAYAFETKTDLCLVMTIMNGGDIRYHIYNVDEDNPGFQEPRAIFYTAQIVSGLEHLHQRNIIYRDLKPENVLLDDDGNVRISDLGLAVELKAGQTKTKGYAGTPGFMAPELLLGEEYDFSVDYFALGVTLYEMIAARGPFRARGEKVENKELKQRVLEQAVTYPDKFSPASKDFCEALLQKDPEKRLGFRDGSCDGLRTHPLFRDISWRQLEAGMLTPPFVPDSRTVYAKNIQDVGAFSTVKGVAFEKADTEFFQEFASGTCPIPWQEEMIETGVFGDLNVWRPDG

GRK2 [2] = molecular target: T4, GRK2 (Homo sapiens, UniProt P25098, S670A); experiment: DSF retest (confirmation), GRK2; format: binding; conditions: for GRK2 Tm: 0.2 mg mL^–1 kinase; for GRK2 ΔTm: relative to intrinsic melting point of the kinase
T4 construct: made in house
T4 sequence (P25098 1-689 S670A): T1 sequence (P25098 1-689 S670A)

GRK5 [3] = molecular target: T5, GRK5 (Bos taurus, UniProt P43249); experiment: DSF retest (confirmation), GRK5; format: binding, bovine; conditions: for GRK5 Tm: 0.2 mg mL^–1 kinase; for GRK5 ΔTm: relative to intrinsic melting point of the kinase
T5 construct: when using full-length kinases as the receptor[37] instead of isolated kinase domains; made in house

protein kinase A (PKA) = molecular target: T6, protein kinase A (PKA) (Mus musculus, UniProt P05132); experiment: DSF retest (confirmation), PKA; format: binding; conditions: for PKA Tm: 0.2 mg mL^–1 kinase; for PKA ΔTm: relative to intrinsic melting point of the kinase
T6 construct: His tag (inferred from pET15b vector and Ni-NTA column) (N); host or cells: E. coli Rosetta(DE3)pLysS
How it was run: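 Thermal shift (ΔTm) measured by DSF with 0.2 mg mL^–1 PKA and 100 μM 1-anilinonaphthalene-8-sulfonic acid dye. Buffer: 20 mM HEPES pH 7.0, 5 mM MgCl2, 2 mM DTT, 1 mM CHAPS.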

GRK1 [4] = molecular target: T3, GRK1; experiment: In vitro phosphorylation assay (tubulin, 5 μM ATP), GRK1; format: biochemical, bovine
GRK2 [5] = molecular target: T7, GRK2 (Bos taurus, UniProt P21146, S670A); experiment: In vitro phosphorylation assay (tubulin, 5 μM ATP), GRK2; format: biochemical, bovine
T7 construct: made in house
T7 sequence (P21146 1-689 S670A): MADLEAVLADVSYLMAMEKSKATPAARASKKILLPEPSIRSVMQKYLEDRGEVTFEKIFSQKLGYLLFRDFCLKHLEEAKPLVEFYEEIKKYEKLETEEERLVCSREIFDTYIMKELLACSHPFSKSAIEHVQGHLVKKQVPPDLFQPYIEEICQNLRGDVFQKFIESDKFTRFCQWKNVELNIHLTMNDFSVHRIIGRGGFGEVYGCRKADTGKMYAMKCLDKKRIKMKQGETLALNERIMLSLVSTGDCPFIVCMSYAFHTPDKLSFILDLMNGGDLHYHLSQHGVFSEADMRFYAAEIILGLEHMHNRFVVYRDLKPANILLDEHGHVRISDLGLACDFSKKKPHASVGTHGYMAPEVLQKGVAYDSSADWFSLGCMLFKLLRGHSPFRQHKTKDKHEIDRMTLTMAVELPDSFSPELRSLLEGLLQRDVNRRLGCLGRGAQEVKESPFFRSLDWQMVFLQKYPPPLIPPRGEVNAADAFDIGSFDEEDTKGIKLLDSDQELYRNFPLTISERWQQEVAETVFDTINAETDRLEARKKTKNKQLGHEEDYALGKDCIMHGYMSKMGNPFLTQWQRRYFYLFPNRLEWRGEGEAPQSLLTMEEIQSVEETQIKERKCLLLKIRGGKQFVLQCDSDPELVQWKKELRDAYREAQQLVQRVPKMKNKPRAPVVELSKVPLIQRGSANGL

GRK5 [6] = molecular target: T5, GRK5; experiment: In vitro phosphorylation assay (tubulin, 5 μM ATP), GRK5; format: biochemical, bovine
PKA = molecular target: T8, PKA (Mus musculus, UniProt P05132); experiment: PKA inhibition assay (ADP-Glo, CREBtide, 100 μM ATP); format: biochemical
T8 construct: His tag (inferred from pET15b vector and Ni-NTA column) (N); host or cells: E. coli Rosetta(DE3)pLysS

GRK1, 2, and 5 and PKA = experiment: Ssel selectivity score calculated from inhibition of GRK1, 2, 5 and PKA; conditions: selectivity score from inhibition of GRK1, 2, 5 and PKA; <0.5 selective
ROCK1 = conditions: relative to GSK180736A (substitution effect); cited from earlier work
[7] = 2 μM kinase, relative to DMSO control
[8] = logarithm of IC50 (−3.3 corresponds to 0.5 mM, footnote c), 438 nM PKA, 100 μM ATP, CREBtide, read-out: PKA log IC50 (converted)

T5 sequence (P43249 whole entry, the tested form may be a part): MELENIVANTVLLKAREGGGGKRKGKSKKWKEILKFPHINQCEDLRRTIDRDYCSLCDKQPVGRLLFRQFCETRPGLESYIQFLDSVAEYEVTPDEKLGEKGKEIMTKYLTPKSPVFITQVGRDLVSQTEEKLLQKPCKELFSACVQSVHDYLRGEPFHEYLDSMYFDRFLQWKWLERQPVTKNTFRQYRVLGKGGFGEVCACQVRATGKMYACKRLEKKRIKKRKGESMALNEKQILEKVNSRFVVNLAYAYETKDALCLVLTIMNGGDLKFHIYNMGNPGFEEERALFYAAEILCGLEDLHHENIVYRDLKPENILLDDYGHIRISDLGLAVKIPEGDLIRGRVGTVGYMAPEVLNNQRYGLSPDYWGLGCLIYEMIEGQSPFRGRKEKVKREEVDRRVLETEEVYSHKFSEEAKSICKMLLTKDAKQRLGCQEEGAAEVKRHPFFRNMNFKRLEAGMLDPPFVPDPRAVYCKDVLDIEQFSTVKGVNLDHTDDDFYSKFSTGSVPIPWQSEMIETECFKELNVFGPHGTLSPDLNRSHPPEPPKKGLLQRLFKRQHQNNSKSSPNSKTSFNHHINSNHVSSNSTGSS
T2 sequence (P43249 whole entry, the tested form may be a part): as above

SMILES	ΔTm at 10 µM (human GRK2S670A; [7]) [°C]	rank in the primary screen, GRK2 (human GRK2S670A)	ΔTm at 10 µM (bovine GRK5) [°C]	GRK1 Tm (GRK1 [1]) [°C]	GRK1 ΔTm (GRK1 [1]) [°C]	GRK2 Tm (GRK2 [2]) [°C]	GRK2 ΔTm (GRK2 [2]) [°C]	GRK5 Tm (GRK5 [3]) [°C]	GRK5 ΔTm (GRK5 [3]) [°C]	PKA Tm (protein kinase A (PKA)) [°C]	PKA ΔTm (protein kinase A (PKA)) [°C]	GRK2 fold (increase in potency relative to paroxetine) (GRK2 [5]) [fold]	GRK5 fold (increase in potency relative to paroxetine) (GRK5 [6]) [fold]	IC50 (PKA; [8]) [µM]	Ssel (GRK1, 2, and 5 and PKA)	increase in potency of ROCK inhibition (ROCK1) [fold]	further results
CC1=C(C(=O)Nc2ccc3[nH]ncc3c2)C(c2ccc3ccccc3c2)CC(=O)N1 (stereo not drawn) [GSK270822A]	3.82	5	3.92	24.6	4.7	47.8	10.3	29.4	2.6	51.9	6.5	0.10	2.0	50.1	0.883	5	ΔTm, primary screen, GRK2 (human GRK2S670A; [7]): 3.8 °C; GRK1 fold (increase in potency relative to paroxetine) (GRK1 [4]; relative to paroxetine): 1 fold; IC50 (PKA; read-out: IC50 against PKA): < 100 µM
CC1=C(C(=O)Nc2ccc3[nH]ncc3c2)C(c2ccc(F)cc2)NC(c2ccc(C(F)(F)F)nc2)=N1 (stereo not drawn) [GSK317354A]	3.78	6	2.29	23.2	3.3	49.0	11.4	27.3	0.6	45.9	0.5	0.50	0.20	200	0.109	10	IC50 (GRK1 [4]; read-out: GRK1 log IC50 (converted)): > 1000 µM; IC50 (GRK2 [5]; read-out: GRK2 log IC50 (converted)): 2.51 µM; less potent than GSK180736A against GRK2 (GRK2 [5]; relative to GSK180736A): about 1 log; IC50 (GRK5 [6]; read-out: GRK5 log IC50 (converted)): 631 µM
